Test results published in PubChem BioAssay AID330 (DTP/NCI, 2004).
Values joined by “and” are separate entries in the source; they are usually repeats but may differ in a detail not shown here. Equal entries are not always repeated. Inconclusive results and toxic doses are left out.

System: P388 leukemia ip, CD2F1 mice, survival T/C
Experiment: NCI In Vivo Anticancer Drug Screen. Data for tumor model P388 Leukemia (intraperitoneal) in CD2F1 (CDF1) mice
Conditions: endpoint: median survival time, higher = longer survival
Method in brief: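 Mice carrying the transplanted tumor received test compound or vehicle. Survival was recorded in each group, and the value is the treated-group measurement divided by that of the vehicle-treated control group.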

[1] = dose: 50.0 mg/kg/injection, schedule: Q01DX005 (ip), vehicle: Klucel (hydroxypropylcellulose) (HPC)
[2] = dose: 100.0 mg/kg/injection, schedule: Q01DX005 (ip), vehicle: Klucel (hydroxypropylcellulose) (HPC)
[3] = dose: 200.0 mg/kg/injection, schedule: Q01DX005 (ip), vehicle: Klucel (hydroxypropylcellulose) (HPC)
[4] = dose: 25.0 mg/kg/injection, schedule: Q01DX009 (ip), vehicle: Klucel (hydroxypropylcellulose) (HPC)
[5] = dose: 50.0 mg/kg/injection, schedule: Q01DX009 (ip), vehicle: Klucel (hydroxypropylcellulose) (HPC)
[6] = dose: 100.0 mg/kg/injection, schedule: Q01DX009 (ip), vehicle: Klucel (hydroxypropylcellulose) (HPC)
[7] = dose: 200.0 mg/kg/injection, schedule: Q01DX009 (ip), vehicle: Klucel (hydroxypropylcellulose) (HPC)
[8] = dose: 60.0 mg/kg/injection, schedule: Q01DX005 (ip), vehicle: saline with Tween-80
[9] = dose: 120.0 mg/kg/injection, schedule: Q01DX005 (ip), vehicle: saline with Tween-80
[10] = dose: 240.0 mg/kg/injection, schedule: Q01DX005 (ip), vehicle: saline with Tween-80
[11] = dose: 50.0 mg/kg/injection, schedule: Q01DX009 (ip), vehicle: saline with Tween-80
[12] = dose: 100.0 mg/kg/injection, schedule: Q01DX009 (ip), vehicle: saline with Tween-80
[13] = dose: 200.0 mg/kg/injection, schedule: Q01DX009 (ip), vehicle: saline with Tween-80
[14] = dose: 12.5 mg/kg/injection, schedule: Q01DX009 (ip), vehicle: saline
[15] = dose: 25.0 mg/kg/injection, schedule: Q01DX009 (ip), vehicle: saline
[16] = dose: 50.0 mg/kg/injection, schedule: Q01DX009 (ip), vehicle: saline
[17] = dose: 50.0 mg/kg/injection, schedule: Q01DX005 (ip), vehicle: saline with Tween-80
[18] = dose: 100.0 mg/kg/injection, schedule: Q04DX002 (ip), vehicle: saline
[19] = dose: 200.0 mg/kg/injection, schedule: Q04DX002 (ip), vehicle: saline
[20] = dose: 400.0 mg/kg/injection, schedule: Q04DX002 (ip), vehicle: saline
[21] = dose: 100.0 mg/kg/injection, schedule: Q01DX005 (ip), vehicle: saline with Tween-80
[22] = dose: 100.0 mg/kg/injection, schedule: Q01DX009 (ip), vehicle: saline
[23] = dose: 200.0 mg/kg/injection, schedule: Q01DX009 (ip), vehicle: saline
[24] = dose: 60.0 mg/kg/injection, schedule: Q01DX005 (ip), vehicle: saline
[25] = dose: 120.0 mg/kg/injection, schedule: Q01DX005 (ip), vehicle: saline
[26] = dose: 240.0 mg/kg/injection, schedule: Q01DX005 (ip), vehicle: saline

CC(C)=CCc1cc(O)c(C)cc1O
T/C (dose: 12.5 mg/kg/injection, schedule: Q01DX009 (ip), vehicle: distilled water + Tween-80 + alcohol): 99 % of control | T/C (dose: 25.0 mg/kg/injection, schedule: Q01DX009 (ip), vehicle: distilled water + Tween-80 + alcohol): 91 % of control

COP(=O)(OC)C1c2ccccc2-c2cccc(C(=O)O)c21 (stereo unspecified)
T/C [1]: 105 % of control | T/C [2]: 106 % of control | T/C [3]: 110 % of control

Cc1ccc(S(=O)(=O)N/N=C/c2c(Cl)n(C)c3ccccc23)cc1
T/C (dose: 100.0 mg/kg/injection, schedule: Q01DX001 (ip), vehicle: Klucel (hydroxypropylcellulose) (HPC)): 91 % of control | T/C (dose: 200.0 mg/kg/injection, schedule: Q01DX001 (ip), vehicle: Klucel (hydroxypropylcellulose) (HPC)): 97 % of control | T/C (dose: 400.0 mg/kg/injection, schedule: Q01DX001 (ip), vehicle: Klucel (hydroxypropylcellulose) (HPC)): 100 % of control

C=Cc1c(C)c(O)cc2c1-c1ccc(O)c(C)c1CC2
T/C [4]: 104 % of control | T/C [5]: 100 % of control | T/C [6]: 92 % of control | T/C [7]: 93 % of control

Cc1ccc(C[N+](C)(C)CCCCCOc2c(Br)cc(Br)cc2Br)o1
T/C (dose: 3.13 mg/kg/injection, schedule: Q04DX003 (ip), vehicle: Klucel (hydroxypropylcellulose) (HPC)): 101 % of control | T/C (dose: 6.25 mg/kg/injection, schedule: Q04DX003 (ip), vehicle: Klucel (hydroxypropylcellulose) (HPC)): 94 % of control | T/C (dose: 12.5 mg/kg/injection, schedule: Q04DX003 (ip), vehicle: Klucel (hydroxypropylcellulose) (HPC)): 98 % of control and 106 % of control

CN(CC(N)=O)C(=O)c1cnc2ccccc2c1
T/C [8]: 98 % of control | T/C [9]: 101 % of control | T/C [10]: 99 % of control

O=C1CSC=C(c2ccccc2)O1
T/C (dose: 12.5 mg/kg/injection, schedule: Q01DX009 (ip), vehicle: saline with Tween-80): 108 % of control | T/C (dose: 25.0 mg/kg/injection, schedule: Q01DX009 (ip), vehicle: saline with Tween-80): 110 % of control | T/C [11]: 109 % of control | T/C [12]: 104 % of control

NS(=O)(=O)c1cc(C(=O)O)cc(NC(=O)CCCCl)c1Oc1ccccc1
T/C [11]: 103 % of control and 123 % of control | T/C [12]: 100 % of control and 96 % of control | T/C [13]: 104 % of control and 123 % of control

O=C(Nc1ccccc1)/C(N=Nc1ccc([N+](=O)[O-])cc1Cl)=N/Nc1ccccc1S(=O)(=O)O
T/C [1]: 102 % of control | T/C [2]: 101 % of control | T/C [3]: 91 % of control

CCCCCC(C)[P+](c1ccccc1)(c1ccccc1)c1ccccc1 (stereo unspecified)
T/C (dose: 0.39 mg/kg/injection, schedule: Q01DX009 (ip), vehicle: saline with Tween-80): 101 % of control | T/C (dose: 0.78 mg/kg/injection, schedule: Q01DX009 (ip), vehicle: saline with Tween-80): 114 % of control and 120 % of control

Cc1o[nH]c(=O)c1C
T/C [12]: 100 % of control | T/C [13]: 100 % of control | T/C (dose: 400.0 mg/kg/injection, schedule: Q01DX009 (ip), vehicle: saline with Tween-80): 100 % of control

CCCCCCC(=O)C(=O)c1ccc(O)c(C)c1O
T/C [5]: 89 % of control | T/C [6]: 93 % of control | T/C [7]: 93 % of control

S=c1sc(-c2ccc(Cl)cc2)nn1CSc1nc2ccccc2o1
T/C [8]: 97 % of control | T/C [9]: 101 % of control | T/C [10]: 95 % of control

CNC(=O)OCc1c(COC(=O)NC)c(C)n(-c2ccc(Br)cc2)c1C
T/C [14]: 152 % of control and 154 % of control | T/C [15]: 157 % of control | T/C [16]: 89 % of control

CCOC(=O)c1ccc(NC(=O)c2cccc(Cl)c2)cc1
T/C [5]: 104 % of control | T/C [6]: 100 % of control | T/C [7]: 98 % of control

NC(=O)CSc1nnc2ccccn12
T/C (dose: 50.0 mg/kg/injection, schedule: Q04DX003 (ip), vehicle: saline): 92 % of control | T/C (dose: 100.0 mg/kg/injection, schedule: Q04DX003 (ip), vehicle: saline): 100 % of control | T/C (dose: 200.0 mg/kg/injection, schedule: Q04DX003 (ip), vehicle: saline): 104 % of control

COC(=O)CC1(C(=O)OC)C2=C(C(=O)c3ccccc3C2=O)N2CCCC21 (stereo unspecified)
T/C (dose: 12.5 mg/kg/injection, schedule: Q01DX009 (ip), vehicle: Klucel (hydroxypropylcellulose) (HPC)): 99 % of control | T/C [4]: 100 % of control | T/C [5]: 106 % of control | T/C [6]: 103 % of control

COc1cc(NCCCCCNC(C)C)c2ncccc2c1
T/C (dose: 12.5 mg/kg/injection, schedule: Q01DX005 (ip), vehicle: saline with Tween-80): 103 % of control | T/C (dose: 25.0 mg/kg/injection, schedule: Q01DX005 (ip), vehicle: saline with Tween-80): 113 % of control | T/C [17]: 100 % of control

O[C@@H]1CCC[C@@H]2O[C@H]12
T/C [18]: 102 % of control | T/C [19]: 103 % of control | T/C [20]: 109 % of control

CC(=O)NS(=O)(=O)c1ccc(N=Nc2c(C)nn(C(=O)c3cccnc3)c2-c2ccccc2)cc1
T/C [17]: 87 % of control | T/C [21]: 89 % of control

CCOC(=O)C(Cc1c[nH]c2ccccc12)NCCNc1ccccc1 (stereo unspecified)
T/C [16]: 91 % of control | T/C [22]: 91 % of control | T/C [23]: 99 % of control

CC(=O)NC(CSc1ccccc1)C(=O)O (stereo unspecified)
T/C [17]: 100 % of control | T/C [21]: 100 % of control | T/C (dose: 200.0 mg/kg/injection, schedule: Q01DX005 (ip), vehicle: saline with Tween-80): 99 % of control

O=C1OC(=O)C2CC3OC3CC12 (stereo unspecified)
T/C (dose: 12.5 mg/kg/injection, schedule: Q01DX001 (ip), vehicle: saline): 104 % of control | T/C (dose: 25.0 mg/kg/injection, schedule: Q01DX001 (ip), vehicle: saline): 109 % of control | T/C (dose: 50.0 mg/kg/injection, schedule: Q01DX001 (ip), vehicle: saline): 100 % of control

CCCCCCCCCCCCCCCC(=O)N(CCC#N)CCC#N
T/C [12]: 185 % of control | T/C [13]: 100 % of control

CCC(=O)N/C(N)=N\C(N)=O
T/C (dose: 50.0 mg/kg/injection, schedule: Q01DX005 (ip), vehicle: saline): 95 % of control | T/C (dose: 100.0 mg/kg/injection, schedule: Q01DX005 (ip), vehicle: saline): 98 % of control

CN1CC2OC2(c2ccccc2)C(c2ccccc2)C1 (stereo unspecified)
T/C [17]: 102 % of control | T/C [21]: 102 % of control

CCN(CC)c1cc(=O)nc2ccccn12
T/C [24]: 100 % of control | T/C [25]: 99 % of control | T/C [26]: 106 % of control

C=C1C(=O)OC2/C=C(/C)C3(O)OC(C)(CC(OC(=O)C(C)C)C12)CC3OC(C)=O (stereo unspecified)
T/C [4]: 110 % of control | T/C [5]: 116 % of control

O=C(c1ccccc1)N1OCCCc2ccccc21
T/C [8]: 104 % of control | T/C [9]: 96 % of control | T/C [10]: 91 % of control

CN(C)CCO
T/C [24]: 104 % of control | T/C [25]: 100 % of control | T/C [26]: 118 % of control

CCCCCCC(=O)/C=C/c1ccc(OC(=O)c2ccc(Cl)cc2)cc1
T/C (dose: 6.25 mg/kg/injection, schedule: Q01DX009 (ip), vehicle: saline): 97 % of control | T/C [14]: 94 % of control | T/C [15]: 94 % of control | T/C [22]: 92 % of control | T/C [23]: 92 % of control

C[S+](C)CCCNC(=O)c1csc(-c2cscn2)n1
T/C (dose: 6.25 mg/kg/injection, schedule: Q01DX005 (ip), vehicle: water): 101 % of control | T/C (dose: 12.5 mg/kg/injection, schedule: Q01DX005 (ip), vehicle: water): 96 % of control | T/C (dose: 25.0 mg/kg/injection, schedule: Q01DX005 (ip), vehicle: water): 101 % of control

Cc1noc(NS(=O)(=O)c2ccc(NCc3c4ccccc4nc4cc(Cl)ccc34)cc2)c1C
T/C [8]: 100 % of control | T/C [9]: 97 % of control | T/C [10]: 103 % of control

Cc1cc(C)n(-c2ccc3nnnn3n2)n1
T/C [18]: 93 % of control | T/C [19]: 93 % of control | T/C [20]: 102 % of control

Cc1onc(-c2ccccc2Cl)c1C(=O)SCC(=O)Nc1cc(C(F)(F)F)cc(C(F)(F)F)c1
T/C [11]: 98 % of control | T/C [12]: 100 % of control | T/C [13]: 89 % of control

O=C1CC(N2CCCC2)=Nc2ccccc2N1
T/C [1]: 113 % of control | T/C [2]: 104 % of control | T/C [3]: 103 % of control
